Measurements: PubChem BioAssay (NCI)
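Growth conditions: 96-well plates. Treatment: test compound, 48 hours, 5 concentrations. Analysis: linear interpolation between bracketing concentrations; unreached endpoints set to highest concentration. TGI marks complete inhibition of growth.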

How the values were obtained:
Assay in all cases: growth of human tumour cells (NCI), 48 h
786-0 renal = system: 786-0 renal
A498 renal = system: A498 renal
A549 NSCLC = system: A549 NSCLC
ACHN renal = system: ACHN renal
CAKI-1 renal = system: CAKI-1 renal
CCRF-CEM leukemia = system: CCRF-CEM leukemia
COLO 205 colon = system: COLO 205 colon
DLD-1 colon = system: DLD-1 colon
DMS 114 small cell lung = system: DMS 114 small cell lung
DMS 273 small cell lung = system: DMS 273 small cell lung
EKVX NSCLC = system: EKVX NSCLC
HCC-2998 colon = system: HCC-2998 colon
HCT-116 colon = system: HCT-116 colon
HCT-15 colon = system: HCT-15 colon
HL-60(TB) leukemia = system: HL-60(TB) leukemia
HOP-18 NSCLC = system: HOP-18 NSCLC
HOP-62 NSCLC = system: HOP-62 NSCLC
HOP-92 NSCLC = system: HOP-92 NSCLC
HT29 colon = system: HT29 colon
IGROV1 ovarian = system: IGROV1 ovarian
K-562 leukemia = system: K-562 leukemia
KM12 colon = system: KM12 colon
KM20L2 colon = system: KM20L2 colon
LOX IMVI melanoma = system: LOX IMVI melanoma
LXFL 529 NSCLC = system: LXFL 529 NSCLC
M14 melanoma = system: M14 melanoma
M19-MEL melanoma = system: M19-MEL melanoma
MALME-3M melanoma = system: MALME-3M melanoma
MOLT-4 leukemia = system: MOLT-4 leukemia
NCI-H226 lung = system: NCI-H226 lung
NCI-H23 lung = system: NCI-H23 lung
NCI-H460 lung = system: NCI-H460 lung
NCI-H522 lung = system: NCI-H522 lung
OVCAR-3 ovarian = system: OVCAR-3 ovarian
OVCAR-5 ovarian = system: OVCAR-5 ovarian
OVCAR-8 ovarian = system: OVCAR-8 ovarian
RPMI-8226 leukemia = system: RPMI-8226 leukemia
RXF 393 renal = system: RXF 393 renal
SF-268 CNS = system: SF-268 CNS
SF-295 CNS = system: SF-295 CNS
SF-539 CNS = system: SF-539 CNS
SK-MEL-2 melanoma = system: SK-MEL-2 melanoma
SK-MEL-28 melanoma = system: SK-MEL-28 melanoma
SK-MEL-5 melanoma = system: SK-MEL-5 melanoma
SK-OV-3 ovarian = system: SK-OV-3 ovarian
SN12C renal = system: SN12C renal
SNB-19 CNS = system: SNB-19 CNS
SNB-75 CNS = system: SNB-75 CNS
SNB-78 CNS = system: SNB-78 CNS
SR leukemia = system: SR leukemia
SW-620 colon = system: SW-620 colon
TK-10 renal = system: TK-10 renal
U251 CNS = system: U251 CNS
UACC-257 melanoma = system: UACC-257 melanoma
UACC-62 melanoma = system: UACC-62 melanoma
UO-31 renal = system: UO-31 renal
XF 498 CNS = system: XF 498 CNS
OVCAR-4 ovarian = system: OVCAR-4 ovarian
RXF-631 renal = system: RXF-631 renal

For `O=C1[C@@H]2C3SC(c4ccccc43)[C@@H]2C(=O)N1c1ccccc1`, the TGI (786-0 renal) was > 100 µM, the TGI (A498 renal) was > 100 µM and the TGI (A549 NSCLC) was > 100 µM. The TGI (ACHN renal) was > 100 µM, the TGI (CAKI-1 renal) was > 100 µM and the TGI (CCRF-CEM leukemia) was > 100 µM. For the same molecule, the TGI (COLO 205 colon) was > 100 µM, the TGI (DLD-1 colon) was > 100 µM and the TGI (DMS 114 small cell lung) was > 100 µM. The TGI (DMS 273 small cell lung) was > 100 µM, the TGI (EKVX NSCLC) was > 100 µM and the TGI (HCC-2998 colon) was > 100 µM. For the same molecule, the TGI (HCT-116 colon) was > 100 µM, the TGI (HCT-15 colon) was > 100 µM and the TGI (HL-60(TB) leukemia) was > 100 µM. The TGI (HOP-18 NSCLC) was > 100 µM, the TGI (HOP-62 NSCLC) was > 100 µM and the TGI (HOP-92 NSCLC) was > 100 µM. The TGI (HT29 colon) was > 100 µM, the TGI (IGROV1 ovarian) was > 100 µM and the TGI (K-562 leukemia) was > 100 µM. The TGI (KM12 colon) was > 100 µM, the TGI (KM20L2 colon) was > 100 µM and the TGI (LOX IMVI melanoma) was > 100 µM. The TGI (LXFL 529 NSCLC) was > 100 µM, the TGI (M14 melanoma) was > 100 µM and the TGI (M19-MEL melanoma) was > 100 µM. For the same molecule, the TGI (MALME-3M melanoma) was > 100 µM, the TGI (MOLT-4 leukemia) was > 100 µM and the TGI (NCI-H226 lung) was > 100 µM. The TGI (NCI-H23 lung) was > 100 µM, the TGI (NCI-H460 lung) was > 100 µM and the TGI (NCI-H522 lung) was > 100 µM. For the same molecule, the TGI (OVCAR-3 ovarian) was > 100 µM, the TGI (OVCAR-5 ovarian) was > 100 µM and the TGI (OVCAR-8 ovarian) was > 100 µM. The TGI (RPMI-8226 leukemia) was > 100 µM, the TGI (RXF 393 renal) was > 100 µM and the TGI (SF-268 CNS) was > 100 µM. For the same molecule, the TGI (SF-295 CNS) was > 100 µM, the TGI (SF-539 CNS) was > 100 µM and the TGI (SK-MEL-2 melanoma) was > 100 µM. The TGI (SK-MEL-28 melanoma) was > 100 µM, the TGI (SK-MEL-5 melanoma) was > 100 µM and the TGI (SK-OV-3 ovarian) was > 100 µM. For the same molecule, the TGI (SN12C renal) was > 100 µM, the TGI (SNB-19 CNS) was > 100 µM and the TGI (SNB-75 CNS) was > 83 µM. For the same molecule, the TGI (SNB-78 CNS) was > 100 µM, the TGI (SR leukemia) was > 100 µM and the TGI (SW-620 colon) was > 100 µM. The TGI (TK-10 renal) was > 100 µM, the TGI (U251 CNS) was > 100 µM and the TGI (UACC-257 melanoma) was > 100 µM. The TGI (UACC-62 melanoma) was > 100 µM, the TGI (UO-31 renal) was > 100 µM and the TGI (XF 498 CNS) was > 100 µM.

With `COc1cc([C@@H]2c3cc4c(cc3[C@@H](NCc3ccccc3)C3COC(=O)[C@@H]32)OCO4)cc(OC)c1O` (some centres undefined) the TGI (786-0 renal) was 12.5 µM, the TGI (A498 renal) was 19.4 µM and the TGI (A549 NSCLC) was 15.4 µM. For the same molecule, the TGI (ACHN renal) was 5.92 µM, the TGI (CAKI-1 renal) was 14.5 µM and the TGI (CCRF-CEM leukemia) was > 27.2 µM. The TGI (COLO 205 colon) was > 89 µM, the TGI (DLD-1 colon) was > 100 µM and the TGI (DMS 114 small cell lung) was > 64.5 µM. For the same molecule, the TGI (DMS 273 small cell lung) was 36.7 µM, the TGI (EKVX NSCLC) was 38.1 µM and the TGI (HCC-2998 colon) was 33 µM. For the same molecule, the TGI (HCT-116 colon) was > 100 µM, the TGI (HCT-15 colon) was 33.5 µM and the TGI (HL-60(TB) leukemia) was 10.1 µM. For the same molecule, the TGI (HOP-62 NSCLC) was 9.63 µM, the TGI (HOP-92 NSCLC) was 37.9 µM and the TGI (HT29 colon) was 60.1 µM. The TGI (IGROV1 ovarian) was > 92.3 µM, the TGI (K-562 leukemia) was > 79.1 µM and the TGI (KM12 colon) was 49.3 µM. For the same molecule, the TGI (KM20L2 colon) was 85.6 µM, the TGI (LOX IMVI melanoma) was 25.9 µM and the TGI (LXFL 529 NSCLC) was > 100 µM. For the same molecule, the TGI (M14 melanoma) was 36.6 µM, the TGI (M19-MEL melanoma) was > 100 µM and the TGI (MALME-3M melanoma) was 32.7 µM. For the same molecule, the TGI (MOLT-4 leukemia) was 13 µM, the TGI (NCI-H226 lung) was 11.2 µM and the TGI (NCI-H23 lung) was 23.8 µM. For the same molecule, the TGI (NCI-H460 lung) was 15.8 µM, the TGI (OVCAR-3 ovarian) was 42.5 µM and the TGI (OVCAR-4 ovarian) was > 75.5 µM. The TGI (OVCAR-5 ovarian) was > 66.6 µM, the TGI (OVCAR-8 ovarian) was 51.7 µM and the TGI (RPMI-8226 leukemia) was 21.2 µM. It also gave a TGI (RXF 393 renal) of 72.2 µM, a TGI (RXF-631 renal) of 30.2 µM and a TGI (SF-268 CNS) of 61.5 µM. The TGI (SF-295 CNS) was 26.5 µM, the TGI (SF-539 CNS) was 26.7 µM and the TGI (SK-MEL-2 melanoma) was 52.2 µM. The TGI (SK-MEL-28 melanoma) was > 100 µM, the TGI (SK-MEL-5 melanoma) was 35.8 µM and the TGI (SK-OV-3 ovarian) was > 58.9 µM. The TGI (SN12C renal) was 18.8 µM, the TGI (SNB-19 CNS) was 42 µM and the TGI (SNB-75 CNS) was 23.8 µM. For the same molecule, the TGI (SNB-78 CNS) was > 100 µM, the TGI (SR leukemia) was 4.84 µM and the TGI (SW-620 colon) was 57.5 µM. The TGI (TK-10 renal) was > 61.7 µM, the TGI (U251 CNS) was 27.3 µM and the TGI (UACC-257 melanoma) was > 90.2 µM. The TGI (UACC-62 melanoma) was 22.1 µM, the TGI (UO-31 renal) was 17.6 µM and the TGI (XF 498 CNS) was 41 µM.

For `NC(=S)NNC(=O)CCC(=O)Nc1ccc(Cl)cc1Cl`, the TGI (786-0 renal) was > 100 µM, the TGI (A498 renal) was > 100 µM and the TGI (A549 NSCLC) was > 100 µM. For the same molecule, the TGI (ACHN renal) was > 100 µM, the TGI (CAKI-1 renal) was > 100 µM and the TGI (CCRF-CEM leukemia) was > 100 µM. For the same molecule, the TGI (COLO 205 colon) was > 100 µM, the TGI (DLD-1 colon) was > 100 µM and the TGI (DMS 114 small cell lung) was > 100 µM. The TGI (DMS 273 small cell lung) was > 100 µM, the TGI (HCC-2998 colon) was > 100 µM and the TGI (HCT-116 colon) was > 100 µM. For the same molecule, the TGI (HCT-15 colon) was > 100 µM, the TGI (HL-60(TB) leukemia) was > 100 µM and the TGI (HOP-62 NSCLC) was > 100 µM. The TGI (HOP-92 NSCLC) was > 100 µM, the TGI (HT29 colon) was > 100 µM and the TGI (IGROV1 ovarian) was > 100 µM. The TGI (K-562 leukemia) was > 100 µM, the TGI (KM12 colon) was > 100 µM and the TGI (KM20L2 colon) was > 100 µM. The TGI (LOX IMVI melanoma) was > 100 µM, the TGI (LXFL 529 NSCLC) was 86.9 µM and the TGI (M14 melanoma) was > 100 µM. For the same molecule, the TGI (M19-MEL melanoma) was > 100 µM, the TGI (MALME-3M melanoma) was > 100 µM and the TGI (MOLT-4 leukemia) was > 100 µM. For the same molecule, the TGI (NCI-H226 lung) was > 100 µM, the TGI (NCI-H23 lung) was > 100 µM and the TGI (NCI-H460 lung) was > 100 µM. For the same molecule, the TGI (NCI-H522 lung) was > 100 µM, the TGI (OVCAR-3 ovarian) was > 100 µM and the TGI (OVCAR-4 ovarian) was > 100 µM. For the same molecule, the TGI (OVCAR-5 ovarian) was > 100 µM, the TGI (OVCAR-8 ovarian) was > 100 µM and the TGI (RPMI-8226 leukemia) was > 100 µM. The TGI (RXF 393 renal) was > 100 µM, the TGI (RXF-631 renal) was > 100 µM and the TGI (SF-268 CNS) was > 100 µM. The TGI (SF-295 CNS) was > 100 µM, the TGI (SF-539 CNS) was > 100 µM and the TGI (SK-MEL-2 melanoma) was > 100 µM. The TGI (SK-MEL-28 melanoma) was > 100 µM, the TGI (SK-MEL-5 melanoma) was > 100 µM and the TGI (SK-OV-3 ovarian) was > 100 µM. The TGI (SN12C renal) was > 100 µM, the TGI (SNB-19 CNS) was > 100 µM and the TGI (SNB-75 CNS) was > 100 µM. The TGI (SNB-78 CNS) was > 100 µM, the TGI (SW-620 colon) was > 100 µM and the TGI (TK-10 renal) was > 100 µM. The TGI (U251 CNS) was > 100 µM, the TGI (UACC-257 melanoma) was > 100 µM and the TGI (UACC-62 melanoma) was > 100 µM. The TGI (UO-31 renal) was > 100 µM.
